From PubChem BioAssay (NCI)
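Results reflect a 48-hour exposure of cells in 96-well plates to compound at five concentrations. GI50 = concentration required for 50% inhibition of growth. TGI: concentration producing complete growth inhibition.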

Key:
Assay in all cases: NCI-60 cell line screen, 48 h
786-0 renal = test system: 786-0 renal
A498 renal = test system: A498 renal
A549 NSCLC = test system: A549 NSCLC
ACHN renal = test system: ACHN renal
BT-549 breast = test system: BT-549 breast
CAKI-1 renal = test system: CAKI-1 renal
CCRF-CEM leukemia = test system: CCRF-CEM leukemia
COLO 205 colon = test system: COLO 205 colon
DU-145 prostate = test system: DU-145 prostate
EKVX NSCLC = test system: EKVX NSCLC
HCC-2998 colon = test system: HCC-2998 colon
HCT-116 colon = test system: HCT-116 colon
HCT-15 colon = test system: HCT-15 colon
HL-60(TB) leukemia = test system: HL-60(TB) leukemia
HOP-62 NSCLC = test system: HOP-62 NSCLC
HOP-92 NSCLC = test system: HOP-92 NSCLC
HS 578T breast = test system: HS 578T breast
HT29 colon = test system: HT29 colon
IGROV1 ovarian = test system: IGROV1 ovarian
K-562 leukemia = test system: K-562 leukemia
KM12 colon = test system: KM12 colon
M14 melanoma = test system: M14 melanoma
MALME-3M melanoma = test system: MALME-3M melanoma
MCF7 breast = test system: MCF7 breast
MDA-MB-231 breast = test system: MDA-MB-231 breast
MDA-MB-435 = test system: MDA-MB-435
MOLT-4 leukemia = test system: MOLT-4 leukemia
NCI-H226 lung = test system: NCI-H226 lung
NCI-H23 lung = test system: NCI-H23 lung
NCI-H460 lung = test system: NCI-H460 lung
NCI-H522 lung = test system: NCI-H522 lung
NCI/ADR-RES ovarian = test system: NCI/ADR-RES ovarian
OVCAR-4 ovarian = test system: OVCAR-4 ovarian
OVCAR-5 ovarian = test system: OVCAR-5 ovarian
OVCAR-8 ovarian = test system: OVCAR-8 ovarian
PC-3 prostate = test system: PC-3 prostate
RPMI-8226 leukemia = test system: RPMI-8226 leukemia
RXF 393 renal = test system: RXF 393 renal
SF-268 CNS = test system: SF-268 CNS
SF-295 CNS = test system: SF-295 CNS
SF-539 CNS = test system: SF-539 CNS
SK-MEL-2 melanoma = test system: SK-MEL-2 melanoma
SK-MEL-28 melanoma = test system: SK-MEL-28 melanoma
SK-MEL-5 melanoma = test system: SK-MEL-5 melanoma
SK-OV-3 ovarian = test system: SK-OV-3 ovarian
SN12C renal = test system: SN12C renal
SNB-19 CNS = test system: SNB-19 CNS
SNB-75 CNS = test system: SNB-75 CNS
SR leukemia = test system: SR leukemia
SW-620 colon = test system: SW-620 colon
T-47D breast = test system: T-47D breast
TK-10 renal = test system: TK-10 renal
U251 CNS = test system: U251 CNS
UACC-257 melanoma = test system: UACC-257 melanoma
UACC-62 melanoma = test system: UACC-62 melanoma
UO-31 renal = test system: UO-31 renal

SMILES: CN(Cc1ccccc1)S(=O)(=O)/N=C1\NC(=O)NC1=C(Cl)Cl
- GI50 (786-0 renal): 2.06 µM
- TGI (786-0 renal): 4.6 µM
- GI50 (A498 renal): 2.19 µM
- TGI (A498 renal): 6.31 µM
- GI50 (A549 NSCLC): 3.9 µM
- TGI (A549 NSCLC): 16.8 µM
- GI50 (ACHN renal): 1.77 µM
- TGI (ACHN renal): 3.19 µM
- GI50 (BT-549 breast): 1.88 µM
- TGI (BT-549 breast): 3.47 µM
- GI50 (CAKI-1 renal): 1.67 µM
- TGI (CAKI-1 renal): 3.12 µM
- GI50 (CCRF-CEM leukemia): 1.94 µM
- TGI (CCRF-CEM leukemia): 5.08 µM
- GI50 (COLO 205 colon): 1.96 µM
- TGI (COLO 205 colon): 3.98 µM
- GI50 (DU-145 prostate): 2.37 µM
- TGI (DU-145 prostate): 5.34 µM
- GI50 (EKVX NSCLC): 1.84 µM
- TGI (EKVX NSCLC): 3.81 µM
- GI50 (HCC-2998 colon): 1.73 µM
- TGI (HCC-2998 colon): 3.3 µM
- GI50 (HCT-116 colon): 1.94 µM
- TGI (HCT-116 colon): 3.81 µM
- GI50 (HCT-15 colon): 1.52 µM
- TGI (HCT-15 colon): 3.11 µM
- GI50 (HL-60(TB) leukemia): 2.08 µM
- TGI (HL-60(TB) leukemia): 5.35 µM
- GI50 (HOP-62 NSCLC): 3.01 µM
- TGI (HOP-62 NSCLC): 11.5 µM
- GI50 (HOP-92 NSCLC): 1.74 µM
- TGI (HOP-92 NSCLC): 3.36 µM
- GI50 (HS 578T breast): 2.82 µM
- TGI (HS 578T breast): 8.87 µM
- GI50 (HT29 colon): 2.07 µM
- TGI (HT29 colon): 4.72 µM
- GI50 (IGROV1 ovarian): 1.88 µM
- TGI (IGROV1 ovarian): 3.75 µM
- GI50 (K-562 leukemia): 1.04 µM
- TGI (K-562 leukemia): > 100 µM
- GI50 (KM12 colon): 0.27 µM
- TGI (KM12 colon): 0.744 µM
- GI50 (M14 melanoma): 1.76 µM
- TGI (M14 melanoma): 3.51 µM
- GI50 (MALME-3M melanoma): 1.79 µM
- TGI (MALME-3M melanoma): 3.48 µM
- GI50 (MCF7 breast): 0.338 µM
- TGI (MCF7 breast): 13.5 µM
- GI50 (MDA-MB-231 breast): 1.79 µM
- TGI (MDA-MB-231 breast): 3.3 µM
- GI50 (MDA-MB-435): 1.8 µM
- TGI (MDA-MB-435): 3.45 µM
- GI50 (MOLT-4 leukemia): 2.52 µM
- TGI (MOLT-4 leukemia): 7.03 µM
- GI50 (NCI-H226 lung): 2.21 µM
- TGI (NCI-H226 lung): 5.42 µM
- GI50 (NCI-H23 lung): 1.79 µM
- TGI (NCI-H23 lung): 3.55 µM
- GI50 (NCI-H460 lung): 2.39 µM
- TGI (NCI-H460 lung): 5.68 µM
- GI50 (NCI-H522 lung): 1.99 µM
- TGI (NCI-H522 lung): 4.31 µM
- GI50 (NCI/ADR-RES ovarian): 2.1 µM
- TGI (NCI/ADR-RES ovarian): 4.96 µM
- GI50 (OVCAR-4 ovarian): 1.84 µM
- TGI (OVCAR-4 ovarian): 3.64 µM
- GI50 (OVCAR-5 ovarian): 1.69 µM
- TGI (OVCAR-5 ovarian): 3.17 µM
- GI50 (OVCAR-8 ovarian): 2.37 µM
- TGI (OVCAR-8 ovarian): 6.26 µM
- GI50 (PC-3 prostate): 2.02 µM
- TGI (PC-3 prostate): 4.39 µM
- GI50 (RPMI-8226 leukemia): 0.323 µM
- TGI (RPMI-8226 leukemia): 1.9 µM
- GI50 (RXF 393 renal): 1.8 µM
- TGI (RXF 393 renal): 3.51 µM
- GI50 (SF-268 CNS): 2.46 µM
- TGI (SF-268 CNS): 7.02 µM
- GI50 (SF-295 CNS): 3.51 µM
- TGI (SF-295 CNS): 12.2 µM
- GI50 (SF-539 CNS): 1.74 µM
- TGI (SF-539 CNS): 3.25 µM
- GI50 (SK-MEL-2 melanoma): 2.76 µM
- TGI (SK-MEL-2 melanoma): 7.84 µM
- GI50 (SK-MEL-28 melanoma): 1.77 µM
- TGI (SK-MEL-28 melanoma): 3.29 µM
- GI50 (SK-MEL-5 melanoma): 2.05 µM
- TGI (SK-MEL-5 melanoma): 4.27 µM
- GI50 (SK-OV-3 ovarian): 15.7 µM
- TGI (SK-OV-3 ovarian): 29.2 µM
- GI50 (SN12C renal): 1.81 µM
- TGI (SN12C renal): 3.38 µM
- GI50 (SNB-19 CNS): 2.23 µM
- TGI (SNB-19 CNS): 5.32 µM
- GI50 (SNB-75 CNS): 2.04 µM
- TGI (SNB-75 CNS): 9.32 µM
- GI50 (SR leukemia): 0.525 µM
- TGI (SR leukemia): 11.5 µM
- GI50 (SW-620 colon): 1.8 µM
- TGI (SW-620 colon): 3.55 µM
- GI50 (T-47D breast): 1.59 µM
- TGI (T-47D breast): 21.8 µM
- GI50 (TK-10 renal): 2.47 µM
- TGI (TK-10 renal): 29.9 µM
- GI50 (U251 CNS): 1.83 µM
- TGI (U251 CNS): 3.53 µM
- GI50 (UACC-257 melanoma): 2.22 µM
- TGI (UACC-257 melanoma): 5.29 µM
- GI50 (UACC-62 melanoma): 1.73 µM
- TGI (UACC-62 melanoma): 3.32 µM
- GI50 (UO-31 renal): 2.45 µM
- TGI (UO-31 renal): 10.4 µM
